{
  "source": "paper PMC2720136",
  "about": "(Bioorganic & medicinal chemistry, 2009)",
  "key": {"pig kidney FBPase": {"molecular_target": "T1, pig kidney FBPase (Sus scrofa, UniProt P00636)", "T1 sequence (P00636 1-338)": "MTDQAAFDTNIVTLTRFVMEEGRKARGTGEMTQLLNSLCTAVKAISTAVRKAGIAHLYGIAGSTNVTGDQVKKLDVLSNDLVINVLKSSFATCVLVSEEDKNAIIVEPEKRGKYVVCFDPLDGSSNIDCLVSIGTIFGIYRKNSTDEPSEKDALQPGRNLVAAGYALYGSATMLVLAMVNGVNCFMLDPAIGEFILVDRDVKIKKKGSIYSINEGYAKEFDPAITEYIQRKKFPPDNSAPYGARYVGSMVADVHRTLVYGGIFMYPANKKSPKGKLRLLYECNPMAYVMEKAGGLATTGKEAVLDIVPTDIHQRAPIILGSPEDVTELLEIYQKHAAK", "assay": "Coupled-enzyme FBPase activity assay", "assay_type": "biochemical"}, "human liver FBPase": {"tested_on": "human liver FBPase", "assay": "Inhibition of human liver FBPase by MB05032", "assay_type": "biochemical", "settings": "MB05032 EC50 (human liver FBPase) vs 4c IC50 (pig kidney FBPase)"}},
  "data": [
    {"molecule": "Oc1ccc(Nc2nc(-c3ccc(O)cc3)cs2)cc1", "note": "[Compound 3b, 4-(4-(4-Hydroxyphenyl)thiazol-2-ylamino)phenol]", "values": [
      {"measurement": "fold improved inhibitory activity of 3b over 3a", "setting": "pig kidney FBPase; ratio of IC50, 3a vs 3b", "result": 3, "unit": "fold"}
    ]},
    {"molecule": "O=[N+]([O-])c1ccc(-c2csc(Nc3ccc(O)cc3)n2)cc1", "note": "[Compound 3d, 4-(4-(4-Nitrophenyl)thiazol-2-ylamino)phenol]", "values": [
      {"measurement": "inhibition with nitro at R5 (in words)", "setting": "pig kidney FBPase; pig kidney FBPase", "result": "eliminated"}
    ]},
    {"molecule": "Oc1ccc(-c2csc(Nc3ccccc3O)n2)cc1", "note": "[Compound 5b, 2-(4-(4-Hydroxyphenyl)thiazol-2-ylamino)phenol]", "values": [
      {"measurement": "fold improved inhibition of 5b over 5a", "setting": "pig kidney FBPase; ratio of IC50, 5a vs 5b", "result": "~18", "unit": "fold"}
    ]},
    {"molecule": "O=[N+]([O-])c1cccc(Nc2nc(-c3ccccc3)cs2)c1", "note": "[Compound 7a, N-(3-Nitrophenyl)-4-phenylthiazol-2-amine]", "values": [
      {"measurement": "inhibitory activity against the enzyme at 300 μM", "setting": "pig kidney FBPase; pig kidney FBPase, 300 μM inhibitor", "result": "no significant inhibitory activity"}
    ]},
    {"molecule": "O=[N+]([O-])c1ccc(-c2csc(Nc3ccccc3)n2)cc1", "note": "[Compound 8e, 4-(4-Nitrophenyl)-N-phenylthiazol-2-amine]", "values": [
      {"measurement": "inhibition with nitro at R5 (in words)", "setting": "pig kidney FBPase; pig kidney FBPase", "result": "eliminates inhibition"}
    ]},
    {"molecule": "CC(C)Cc1sc(N)nc1-c1ccc(P(=O)(O)O)o1", "note": "[MB05032]", "values": [
      {"measurement": "fold better than 4c", "setting": "human liver FBPase", "result": "approximately 370 fold"}
    ]}
  ]
}
